Assay results: publication PMC10555500, “Evaluation of the Antiproliferative Properties of CpRu Complexes Containing N-Methylated Triazaphosphaadamantane Derivatives” (Bioinorganic Chemistry and Applications, 2023)

Key:
[1] = system: normal human fibroblasts (HDF); test: MTT cytotoxicity assay, normal human dermal fibroblasts; type: cell-based
Protocol: (§1) The MDA-MB-231 and MCF-7 human breast cancer cells were purchased from ATCC. The MDA-MB-231 and MCF-7 cells were grown in Dulbecco's modified Eagles' medium (DMEM high glucose) (Capricorn Scientific) at 37°C in 5% CO2 supplemented with 10% fetal bovine serum (Capricorn Scientific). HDF cells were purchased from Merck and were grown in the fibroblast growth medium. All cells were adherent in monolayers and, upon confluence, were washed with phosphate buffer saline (PBS) and harvested by digestion with trypsin-EDTA 0.05% (v/v). The cells were suspended and transferred into new, sterile, culture flasks for maintenance or seeded in sterile test microplates for different assays. All cells were manipulated under aseptic conditions in a flow chamber.
(§2) The cells were adherent in monolayers and, upon confluence, were harvested by digestion with trypsin. The cytotoxicity of the complexes against the tumour cells was assessed using the colorimetric assay MTT […], which evaluates the metabolic activity of viable cells. This assay measures the conversion of yellow tetrazolium into purple formazan by an active mitochondrial dehydrogenase in living cells. For this purpose, the cells (10–20 × 10^3 in 200 μL of the medium) were seeded into 96-well plates and incubated in a 5% CO2 incubator at 37°C. The cells were settled for 24 h followed by the addition of a dilution series of the complexes in a medium (200 μL). The complexes were first solubilized in 100% DMSO, given a 10 mM stock solution, and then in a medium within the concentration range of 0.1–100 µM. […] After 24 h of incubation, the treatment solutions were removed by aspiration, and MTT solution (200 μL, 0.5 mg·mL^−1 in PBS) was added to each well. After 3 h at 37°C/5% CO2, the solution was removed, and the purple formazan crystals formed inside the cells were dissolved in DMSO (200 μL) by thorough shaking. The cellular viability was evaluated by measuring the absorbance at 570 nm by using a microplate spectrophotometer. The IC50 values were obtained by dose-response curves using the GraphPad Prism software (vs. 5).

[2] = system: MDA-MB-231 breast cancer cells; test: MTT cytotoxicity assay, MDA-MB-231 cells; type: cell-based, human; conditions: 24 h incubation, MTT, average of at least three experiments (±SD)
Protocol: as §1, §2
The MDA-MB-231 and MCF-7 human breast cancer cells were purchased from ATCC. MDA-MB-231 and MCF-7 cells were grown in Dulbecco’s modified Eagles’s medium (DMEM high glucose) (Capricorn Scientific) at 37 °C in 5% CO2 supplemented with 10% fetal bovine serum (Capricorn Scientific). All cells were adherent in monolayers and, upon confluence, were washed with phosphate buffer saline (PBS) and harvested by digestion with Trypsin-EDTA 0.05% (v/v). The cells were suspended and transferred into new, sterile, culture flasks, for maintenance or seeded in sterile test microplates for different assays. All cells were manipulated under aseptic conditions in a flow chamber.
The cells were adherent in monolayers and, upon confluency, were harvested by digestion with trypsin. The cytotoxicity of the complexes against the tumour cells was assessed using the colorimetric assay MTT […], which evaluate the metabolic activity of viable cells. This assay measures the conversion of the yellow tetrazolium into purple formazan by an active mitochondrial dehydrogenase in living cells. For this purpose, cells (10-20 × 10^3 in 200 μL of medium) were seeded into 96-well plates and incubated in a 5% CO2 incubator at 37 °C. The cells were settled for 24 h followed by the addition of a dilution series of the complexes in medium (200 μL). The complexes were first solubilized in 100% DMSO, given a 10 mM stock solution, and then in medium within the concentration range of 0.1–100 µM. […] After 24 h of incubation, the treatment solutions were removed by aspiration, and MTT solution (200 μL, 0.5 mg·mL^-1 in PBS) was added to each well. After 3 h at 37 °C/5% CO2, the solution was removed, and the purple formazan crystals formed inside the cells were dissolved in DMSO (200 μL) by thorough shaking. […]

SMILES: CN1CN2CN(C)C[P]([Ru+2]([P](c3ccccc3)(c3ccccc3)c3ccccc3)[P](c3ccccc3)(c3ccccc3)c3ccccc3)(C1)C2.O=S(=O)([O-])C(F)(F)F.[Cl][Pd][Cl].c1cc[cH-]c1 [Compound 11, [RuCp(PPh3)2-µ-dmoPTA-1κP-2κ^2N,N′-PdCl2](CF3SO3)]
- IC50 ([1]; 24 h incubation, MTT, normal human fibroblasts): 1.59 ± 0.45 µM
- Fold less cytotoxic for fibroblasts (HDF) than for MCF-7 cells ([1]; selectivity HDF vs MCF-7): 2-3 fold
- Fold less cytotoxic for fibroblasts (HDF) than for MDA-MB-231 cells ([1]; selectivity HDF vs MDA-MB-231): 1.5 fold
- IC50 [2]: 1.1 ± 0.2 µM
